Measured values published in patent US20230227815A1, “Systems, Methods, And Compositions For A Facile Accelerated Specific Therapeutic (Fast) Pipeline” (priority 2019, published 2023).
≈ marks a conversion by molar mass, not a printed value.

Test system: E. Coli CUS2B
Assay: Minimum inhibitory concentration assay
Format: cell-based
Settings: for resistance phenotype (CLSI breakpoints): E. Coli CUS2B clinical isolate; for MIC: Escherichia coli, E. Coli CUS2B
Description: To validate the E. Coli CUS2B resistance phenotype observed in the clinic, we measured the isolate's minimum inhibitory concentrations (MIC) for a variety of antibiotics from different classes (FIG. 17A). […] Two potent carbapenem antibiotics, meropenem and doripenem, were the only drugs to which the clinical isolate was susceptible. To investigate this partial carbapenem resistance, we focused on the E. Coli CUS2B response to ertapenem and meropenem. The structures of meropenem and ertapenem differ in the pyrrolidinyl ring's position 2 side chain (FIG. 17B). Meropenem's substituent amide group is thought to be responsible for increased potency against gram-negative organisms in comparison to imipenem. At this position ertapenem has a benzoate substituent group, which imbues the molecule with a net negative charge and increases its lipophilicity, resulting in increased plasma half-life but decreased affinity for membrane porins.
E. Coli CUS2B was provided the Dr. Nancy Madinger, at the University of Colorado Hospital Clinical Microbiology Laboratory's organism bank. The isolate was obtained via rectal swab from a pregnant patient. Unless otherwise mentioned, CUS2B was propagated in aerobic conditions at 37° C. in liquid cultures of cation-adjusted Mueller Hinton broth (CAMHB) with shaking at 225 rpm or on solid CAMHB with 15 g/L of agar. Minimum inhibitory concentration assays Three colonies were picked from a plate and used to inoculate three separate overnight cultures in 1 mL CAMHB each. After 16 hours, the cultures were diluted 1:10,000 and treated with a range of antibiotic concentrations, decreasing in 2-fold increments, in a 384 or 96-well microplate using three biological replicates per condition. Growth in the plate was monitored with a Tecan GENios (Tecan Group Ltd.) running Magellan™ software (v 7.2) at an absorbance of 461 590 nm every 20 minutes for 16 hours, with shaking between measurements. The minimum inhibitory concentration was identified as the lowest antibiotic concentration preventing growth.

MIC	Structure (SMILES)	resistance phenotype (CLSI breakpoints)
–	C[C@@H](O)[C@H]1C(=O)N2C(C(=O)O)=C(S[C@@H]3CN[C@H](CNS(N)(=O)=O)C3)[C@H](C)[C@H]12 [doripenem]	susceptible
2 µg/mL (≈ 4.21 µM)	C[C@@H](O)[C@H]1C(=O)N2C(C(=O)O)=C(S[C@@H]3CN[C@H](C(=O)Nc4cccc(C(=O)O)c4)C3)[C@H](C)[C@H]12 [ertapenem]	resistant
0.25 µg/mL (≈ 0.652 µM)	C[C@@H](O)[C@H]1C(=O)N2C(C(=O)O)=C(S[C@@H]3CN[C@H](C(=O)N(C)C)C3)[C@H](C)[C@H]12 [meropenem]	susceptible
